# Data published in patent publication US7030087B2, “Synthetic approach to designed chemical structures” (priority 1996, dated 2006).
# Marks after values point to notes of the source that are not given here. No end group written: not given here.
# B1: βpep-5 (peptide)
# peptide: KFIVTLRVIKAGPHSPTAQIIVELKNGRKLSLD-NH2
# modifications: not fully specified
# notes: It is entered as the monomer chain
# B2: βpep-1 (peptide)
# peptide: SIQDLNVSMKLFRKQAKWKIIVKLNDGRELSLD-NH2
# modifications: not fully specified
# notes: Synthetic 33-mer designed de novo; It is entered as the monomer chain
# B3: βpep-8 (peptide)
# peptide: ANIKLSVEMKLFKRHLKWKIIVKLNDGRELSLD-NH2
# modifications: not fully specified
# notes: as for B2
# B4: βpep-4 (peptide)
# peptide: SIQDLNVSMKLFRKQAKWKINVKLNDGRELSLD-NH2
# modifications: also: β-sheet sandwich tetramer
# notes: as for B2
# Key:
# [1] = tested on: endotoxin from E. coli 055:B5; assay: Limulus amoebocyte lysate assay (E-TOXATE), endotoxin neutralization; format: biochemical; details: 5.0 × 10^−6 M Peptide; 0.02 U (0.2 pg) endotoxin from E. coli 055:B5; Table 4
# Procedure: The peptides were tested for their ability to neutralize endotoxin. Quantitative endotoxin activities for these peptides were measured by Limulus amoebocyte lysate assay.
# Limulus amoebocyte lysate assay: The ability of synthetic peptides to neutralize endotoxin was detected with the E-TOXATE kit manufactured by Sigma Chemicals (St. Louis, Mo.). […] Peptide or B/PI was incubated with LPS at room temperature for 5 min in 100 ul of a 1:2 dilution of pyrogen-free saline (pH 6.4). The reaction was started by addition of 100 ul of amoebocyte lysate and the final volume was 200 ul. Assuming a 10,000 molecular weight for LPS, the approximate molar ration of B/PI:LPS at neutralization was 3000 to 1.
# The peptides were tested according to the method provided above. […] BG38L was used as a positive control in these experiments.
# P. aeruginosa = assay: Bactericidal activity assay; format: cell-based, Pseudomonas aeruginosa type 1; details: 1.2 × 10^−7 M Peptide; 5 × 105 P. aeruginosa
# Excerpt: Bacteria: P. aeruginosa type 1 is a clinical isolate maintained in the laboratory. The isolate remains a smooth strain and was serotyped by the scheme of Homma. The Pseudomonas strain was maintained by monthly transfer on blood agar plates.
# The peptides can be assayed for bactericidal activity against a variety of organisms such as Pseudomonas aeruginosa type 1, P. cepacia ATCC 25608, E. coli B, and Staphylococcus aureus 502A by standard methods.
# Pseudomonas aeruginosa type 1 is a clinical isolate. The isolate remains a smooth strain and was serotyped by the scheme of Homma (Jpn. J. Exp. Med. 46:329, 1976). A rough strain, E. coli B and S. aureus 502A were obtained from Paul Quie, University of Minnesota (Minneapolis, Minn.). The characteristics of the S. aureus strain have been described by Shinefield et al. (Amer. J. Dis. Chil. 105:646, 1963). Pseudomonas cepacia ATCC 25608 can be purchased from the ATCC. S. aureus and E. coli were maintained on nutrient agar plates and the Pseudomonas strains were maintained on blood agar plates.
# Pyrogen-free solutions were used throughout the assay and all methods that follow. Log phase bacteria were prepared from a culture in brain heart infusion broth (Hovde et al. Infect. Immun. 54:142–148, 1986) and bacteria were washed and resuspended in saline with adjustment to an optical density at 650 nm to provide a yield of about 3×10^8 CFU/ml. Bacteria were diluted 1:10 in 0.08M citrate phosphate buffer, pH 5.6 or pH 7.0, for use in the assay. S. aureus rapidly lost viability in the pH 5.6 buffer and was studied only at pH 7.0. Bactericidal activity was determined by dose response over peptide concentrations ranging from about […] to about 4.1×10^−9M. Bactericidal activity was determined by dose response, preferably determining LD50 by linear regression.
# E. coli 055:B5 endotoxin = assay: Chromogenic Limulus amoebocyte lysate test, neutralization of endotoxin in vitro; format: biochemical; details: 0.01 ng of LPS mixed with 5×10^−6M peptide
# Procedure: (§1) LPS derived from P. aeruginosa and E. coli 0111:B4 or 055:B5 was purchased from List Biological Laboratories (Campbell, Calif.) and stored at 4° C. until use. A commercially available chromogenic Limulus amoebocyte lysate test (Whittaker, Walkersville, Md.) was used to measure endotoxin levels in all solutions and serum samples. Endotoxin levels in peptide solutions were determined to be less than about 0.1 ng/ml. The capacity of BG22, βpep-3 and BG16 to neutralize E. coli 055:B5 endotoxin in vitro was determined by mixing 0.01 ng of LPS with 5×10^−6M of each peptide and results were compared to that observed for 0.01 ng of LPS alone.
# RAW 264.7 cells = assay: LPS-induced secretion of TNF-α in vitro by RAW 264.7 cells; format: cell-based; details: 200 ng/ml E. coli 0111:B4 LPS preincubated with 10^−5 M peptide, 3 hours; compared to BG22, p=0.04
# Procedure: […] RAW 264.7 cells were placed in each well of a 24-well culture plate and allowed to adhere. Immediately before LPS stimulation, medium was removed and cells were washed in serum-free Dulbecco's modified Eagle's medium (DMDM). Cells were incubated at 37° C. in a 10% CO2 atmosphere for 3 hours with: 1) DMEM alone, 2) E. coli 0111:B4 LPS alone, or 3) E. coli 0111:B4 LPS preincubated with BG22, βpep-3 or BG16. The concentration of LPS used in all groups was 200 ng/ml. To avoid non-specific inhibition of LPS-induced TNF-α secretion, 10^−5 M of each peptide was used in the experimental wells. At the end of the incubation period, macrophage supernatants were collected and assayed for TNF-α concentration.
# TNF-α concentrations were measured as described by Battafarano et al. (supra). Briefly, the TNF-α sensitive cell line WEHI was used in all assays of either RAW cell supernatant (in vitro) or serum (in vivo animal model). Concentrations were extrapolated from a standard curve based oil dilutions of purified TNF-α (Genzyme, Cambridge, Mass.), and all samples were examined in triplicate. Viability of the WEHI cells was assessed by measuring the extent of cellular crystal violet uptake by spectrophotometry at 590 nm. In this assay, absorbance was inversely correlated with cell death and lysis resulting from exposure of WEHI cells to TNF-α. […]
# [2] = tested on: Pseudomonas aeruginosa LPS; assay: Endotoxemia in vivo, serum endotoxin levels; design: unit not given here; details: iv 125 μg peptide preincubated with 2 μg LPS per mouse
# Procedure: as §1
# (§2) To study endotoxemia in a mammal, 500 μg of each peptide was added to 8 μg of Pseudomonas aeruginosa LPS in 2.0 ml of pyrogen-free phosphate buffered saline (PBS) ex vivo, and incubated for 30 minutes on a shaker at room temperature. Each mouse was injected via tail vein with 0.5 ml of the mixture (125 μg of BG22, BG16, or βpep-3 and 2 μg of LPS per mouse). Mice were euthanized at 30, 60, 90 and 120 minutes after injection and serum collected just prior to death was analyzed for endotoxin levels and TNF-α concentration.
# All TNF-α and endotoxin measurements in duplicate or triplicate in each experiment. In vivo experiments were performed twice to confirm reproducibility. The results obtained were compared using the unpaired Student's t-test.
# TNF-α = assay: Endotoxemia in vivo, serum TNF-α levels; design: species or system mouse; details: 90 minutes post-challenge; compared to mice receiving LPS without peptide, p<0.05
# Procedure: TNF-α concentrations were measured as described by Battafarano et al. (supra). Briefly, the TNF-α sensitive cell line WEHI was used in all assays of either RAW cell supernatant (in vitro) or serum (in vivo animal model). Concentrations were extrapolated from a standard curve based oil dilutions of purified TNF-α (Genzyme, Cambridge, Mass.), and all samples were examined in triplicate. Viability of the WEHI cells was assessed by measuring the extent of cellular crystal violet uptake by spectrophotometry at 590 nm. In this assay, absorbance was inversely correlated with cell death and lysis resulting from exposure of WEHI cells to TNF-α. The amount of TNF-α in each experimental sample was extrapolated from the standard curve.
# as §2
# All TNF-α and endotoxin measurements in duplicate or triplicate in each experiment. […]
# [3] = biological target: the molecule itself; assay: PFG NMR self-diffusion; self-association
# Procedure: (§3) Pulsed-Field Gradient (PFG) NMR Self-Diffusion Measurements of β-Peptide Series Peptides Pulsed-field gradient (PFG) NMR diffusion measurements (Gibbs, et al. *J. Magn. Reson* 93:395–402, 1991) were performed on βpep peptides to assess self-association properties. Pulsed field gradient (PFG) NMR self-diffusion measurements were made on a Bruker AMX-600 using a GRASP gradient unit. NMR spectra for measurement of diffusion coefficients, D, were acquired using a 5 mm triple-resonance probe equipped with an actively shielded z-gradient coil. […]
# (§4) The Stokes-Einstein relationship $D = k_B T / 6\pi \eta R$ was used to relate D to the macro-molecular radius, R, which was considered to be proportional to the square root of the apparent molecular weight, Mapp^{1/2} (Cantor et al. 1980. *The behavior of biological macromolecules*. Biophysical Chemistry, part III. New York: W. H. Freeman. pp. 979–1039). […] Use of the Stokes-Einstein relationship is specifically derived for a hard sphere, and although the actual molecular shape of each peptide aggregate would affect the diffusion coefficient, the maximum change in the ratio $Daggregate/Dmonomer$ would be about 20% in case of an improbable linear peptide tetramer. $Mapp$ for peptides was calculated using D values of lysozyme, ribonuclease and ubiquitin as standards for monomers of known molecular weight.
# [4] = biological target: the molecule itself; assay: PFG NMR self-diffusion at 30 C, calibrated with lysozyme, ubiquitin and ribonuclease; self-association
# Procedure: Reson* 93:395–402, 1991) were performed on βpep peptides to assess self-association properties. Pulsed field gradient (PFG) NMR self-diffusion measurements were made on a Bruker AMX-600 using a GRASP gradient unit. NMR spectra for measurement of diffusion coefficients, D, were acquired using a 5 mm triple-resonance probe equipped with an actively shielded z-gradient coil. […] The PFG longitudinal eddy-current delay pulse-sequence was used for all self-diffusion measurements which were performed in D_2O over the temperature range 275° K to 310° K Peptide concentrations ranged from 3 mg/mL to 10 mg/mL.
# The Stokes-Einstein relationship $D = k_B T / 6\pi \eta R$ was used to relate D to the macro-molecular radius, R, which was considered to be proportional to the square root of the apparent molecular weight, Mapp^{1/2} (Cantor et al. 1980. *The behavior of biological macromolecules*. Biophysical Chemistry, part III. New York: W. H. Freeman. pp. 979–1039). Therefore, D is proportional to Mapp^{-1/2}. From these simple relationships, the ratio $Ddimer/Dmonomer$ was 0.71, which is very close to 0.72 theoretically predicted for a two sphere dimer (Wills, et al. *J. Phys. Chem.* 85: 3978–3984, 1981). Use of the Stokes-Einstein relationship is specifically derived for a hard sphere, and although the actual molecular shape of each peptide aggregate would affect the diffusion coefficient, the maximum change in the ratio $Daggregate/Dmonomer$ would be about 20% in case of an improbable linear peptide tetramer. $Mapp$ for peptides was calculated using D values of lysozyme, ribonuclease and ubiquitin as standards for monomers of known molecular weight.
# The temperature dependence of diffusion coefficients is plotted in FIG. 4. […] Moreover, for βpep-5, βpep-8 and βpep-1, the temperature dependence was linear and followed the activation energy expected for the self-diffusion of water.
# [5] = biological target: the molecule itself; assay: PFG NMR self-diffusion at 2 C; self-association
# Procedure: as §3, §4
# [6] = biological target: the molecule itself; assay: PFG NMR self-diffusion, 10 C to 40 C; self-association
# Procedure: as §3, §4
# [7] = biological target: the molecule itself; assay: NMR solution structure; self-association
# [8] = 30 minutes after LPS/Peptide injection
# [9] = 60 minutes after LPS/Peptide injection
# [10] = 90 minutes after LPS/Peptide injection
# [11] = 120 minutes after LPS/Peptide injection
Molecule,% Neutralization of Endotoxin (E. coli 055:B5 endotoxin) [%],"endotoxemia in vivo, serum endotoxin levels [2, 8]","endotoxemia in vivo, serum endotoxin levels [2, 9]","endotoxemia in vivo, serum endotoxin levels [2, 10]","endotoxemia in vivo, serum endotoxin levels [2, 11]","average molecular weight (apparent, self-associated state) [4] [Da]",further results
HIKELQVKWKAQKRFLKMSIIVKLNDGRELSLD [βpep-3],81,11*,37*,63*,66*,–,"Endotoxin Neutralization, % neutralization [1]: 79.4, n = 10%; Bactericidal Activity, % killing (P. aeruginosa): 24.9, n = 3%; LPS-induced TNF-α secretion (in words) (RAW 264.7 cells): significantly greater decrease in TNF-α secretion; serum TNF-α levels (in words) (TNF-α): decreased serum TNF-α levels"
MNSQVCEKVTNSVSSKLQPYFQTLPVMTKI [BG16],0,">10,000","2,394","5,599",">10,000",–,–
"NANIKISGKWKAQKRFLKMSGNFDLSI [BG22, a 27mer, BPI aa 82–108]",37,7*,28*,73*,47*,–,serum TNF-α levels (in words) (TNF-α): decreased serum TNF-α levels
B1,–,–,–,–,–,12800,ratio of average molecular weight to calculated monomer molecular weight [3]: 3.6
B2,–,–,–,–,–,13700,ratio of average molecular weight to calculated monomer molecular weight [3]: 3.6
B3,–,–,–,–,–,9490,ratio of apparent molecular weight to calculated monomer molecular weight [5]: 3.7; ratio of apparent molecular weight to calculated monomer molecular weight [6]: 2.4
B4,–,–,–,–,–,–,binding result [7]: binds
